Results on twelve compounds are retold here after ChEMBL document CHEMBL1201862, “PubChem BioAssay data set” (2004).

Molecules are shown by their SMILES.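 Dose response: 5 concentrations. Exposure: 48 h. Format: 96-well plates. Endpoint: linear interpolation; highest concentration if not reached. GI50 marks 50% less growth.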 The source made the active and inactive calls. No stated cut-off is given here; in the data, active = GI50 up to about 1.1 µM and inactive = higher.

Common to all, as to experiment: inhibition of tumour cell growth, NCI panel, 48 h
The subject of assay [1] is Malme-3M.
The subject of assay [2] is HL-60.
Assay [3] relates to MDA-MB-435.
The subject of assay [4] is A549.
Assay [5] relates to SF-268.
The test system of assay [6] is RPMI-8226.
In assay [7] the test system is RXF 393.
The subject of assay [8] is OVCAR-3.
Assay [9] relates to NCI/ADR-RES.
Assay [10] relates to OVCAR-8.
The subject of assay [11] is SW-620.
Assay [12] has as its system SK-OV-3.
For assay [13], the system named is SK-MEL-2.
Assay [14] deals with CAKI-1.
Assay [15] deals with A498.
Assay [16] has as its system EKVX.
Assay [17] deals with OVCAR-4.
The subject of assay [18] is HOP-92.
For assay [19], the system named is HCC 2998.
Assay [20] concerns MCF7.

For `O=Cc1c(C(=O)O)[nH]c(=O)[nH]c1=O`, the GI50 in assay [1], in assay [2], in [3], in assay [4], in assay [5] and in assay [6] was > 100 µM (inactive) throughout. The GI50 in assay [7], in assay [8], in assay [9], in assay [10], in [11] and in assay [12] was > 100 µM (inactive) in each case. In addition, the GI50 in [13], in assay [14], in assay [15] and in [16] was > 100 µM (inactive) in each case.
`O=c1c(Cl)c(Cl)cnn1CCCl`: the GI50 in assay [1] was 2.56 µM (inactive); in assay [2] it was 2.19 µM (inactive); in [3] it was 2.82 µM (inactive); in [4], 17.9 µM (inactive); in [5] it was 3.83 µM (inactive); in assay [6], 6.5 µM (inactive). Further, the GI50 was 2.09 µM (inactive) in [7]; 3.47 µM (inactive) in assay [8]; 3.44 µM (inactive) in [10]; 1.9 µM (inactive) in assay [11]; 3.56 µM (inactive) in [12]; 1.57 µM (inactive) in assay [17]. The GI50 in [14] is 2.27 µM (inactive); in [15] it was 13.1 µM (inactive); in [16], 6.73 µM (inactive); in [18], 1.93 µM (inactive); in assay [19] it was 3.34 µM (inactive).
Consider `Cc1cc(Br)cc(C)c1NC(=O)C(=O)C(C(=O)c1ccc2ccccc2c1)C1OC(=O)c2ccccc21` (centres undefined), for which the GI50 in [1] was 14.7 µM (inactive); in assay [2], 4.45 µM (inactive); in assay [4], 22.4 µM (inactive); in [5], 7.98 µM (inactive); in assay [6] it was 5.94 µM (inactive); in [7], 5.93 µM (inactive). Also, the GI50 in [8] is 19.5 µM (inactive); in [10], 7.18 µM (inactive); in assay [11], 8.02 µM (inactive); in assay [12], 78.5 µM (inactive); in [17], 5.14 µM (inactive); in assay [13] it was 16 µM (inactive). The GI50 in [14] is 15.7 µM (inactive); in [15], 12 µM (inactive); in assay [16], 19.5 µM (inactive); in assay [18], 1.58 µM (inactive); in assay [19] it was 11 µM (inactive).
As for `Cc1ccccc1/N=N/c1cc(C)c(/N=N/c2c(O)ccc3ccccc23)cc1C`, the GI50 in assay [1], in assay [3], in assay [4], in assay [5], in assay [6] and in assay [7] was > 100 µM (inactive) in each case. Moreover, the GI50 in assay [8], in assay [9], in [10], in assay [11], in assay [12] and in assay [17] was > 100 µM (inactive) each time. Moreover, the GI50 in [13], in [14], in [15], in assay [16] and in assay [18] was > 100 µM (inactive) each time.
Turning to `COc1ccc(/C(Cl)=C(\CNc2ccccn2)c2ccccc2)cc1OC`, the GI50 in [1], in assay [2], in assay [3], in [4], in [5] and in assay [6] was > 100 µM (inactive) each time. Besides, the GI50 in assay [7], in assay [9], in assay [10], in assay [11], in assay [12] and in assay [17] was > 100 µM (inactive) throughout. Besides, the GI50 in [13], in assay [14], in [15], in [16], in assay [18] and in assay [19] was > 100 µM (inactive) in each case.
Regarding `CC(=O)OCC1OC(Sc2nc(-c3ccc(C)cc3)c(C#N)c(=O)n2C2OC(COC(C)=O)C(OC(C)=O)C(OC(C)=O)C2OC(C)=O)C(OC(C)=O)C(OC(C)=O)C1OC(C)=O` (centres undefined), the GI50 in assay [4], in assay [5], in assay [6], in assay [7], in assay [8] and in assay [9] was > 100 µM (inactive) each time. In addition, the GI50 in assay [10], in [11], in assay [12], in [13], in assay [14] and in assay [20] was > 100 µM (inactive) each time. Also, the GI50 in [15] and in assay [16] was > 100 µM (inactive) in each case.
In the case of `CC(O)CNC1=CC(=O)C(=O)c2ccccc21` (centres undefined), the GI50 in assay [1] is 4.15 µM (inactive); in assay [2], 27.4 µM (inactive); in assay [3] it was 11.3 µM (inactive); in [4], 19 µM (inactive); in [5], 16 µM (inactive); in assay [6] it was 18.2 µM (inactive). Besides, the GI50 was 35.4 µM (inactive) in [7]; 3 µM (inactive) in assay [8]; 15.5 µM (inactive) in [11]; 34.5 µM (inactive) in [12]; 13.2 µM (inactive) in [17]; 16.4 µM (inactive) in [13]. Moreover, the GI50 was 18.7 µM (inactive) in assay [14]; 19.5 µM (inactive) in assay [20]; 27.7 µM (inactive) in [15]; 18.6 µM (inactive) in assay [16]; 19.5 µM (inactive) in assay [18]; 11.7 µM (inactive) in assay [19].
For the compound `COc1cc([C@@H]2c3cc4c(cc3[C@@H](OC(=O)c3ccc(N)cc3)C3COC(=O)[C@@H]32)OCO4)cc(OC)c1O` (some centres undefined), the GI50 was 12.3 µM (inactive) in [1]; 3.1 µM (inactive) in assay [2]; 5.02 µM (inactive) in assay [4]; 9.59 µM (inactive) in [5]; 7.8 µM (inactive) in [6]; 2.92 µM (inactive) in [7]. The GI50 in assay [8] is 12.9 µM (inactive); in assay [10], 4.49 µM (inactive); in assay [11] it was 5.71 µM (inactive); in assay [12], 3.2 µM (inactive); in assay [17], 45.4 µM (inactive); in assay [13] it was 6.32 µM (inactive). Further, the GI50 in [14] was 8.47 µM (inactive); in [15], 5.82 µM (inactive); in assay [16] it was 20.2 µM (inactive); in assay [18], 3.77 µM (inactive); in [19], 12.2 µM (inactive).
Consider `COc1ccc(CN2C(=O)C(Cc3cc(OC)c(OC)c(C)c3OC)N(C(=O)OC(C)C)C(=O)/C2=C/c2cc(OC)c(OC)c(C)c2OC)cc1` (centres undefined), for which the GI50 was 64.9 µM (inactive) in [1]; 7.96 µM (inactive) in [2]; > 100 µM (inactive) in [4]; > 100 µM (inactive) in [5]; 16.4 µM (inactive) in assay [6]; 6.9 µM (inactive) in assay [7]. For the same compound, the GI50 in assay [8] is 16.1 µM (inactive); in assay [10], > 100 µM (inactive); in [11], > 100 µM (inactive); in assay [12], > 100 µM (inactive); in assay [17], > 100 µM (inactive); in assay [13] it was 49.1 µM (inactive). Also, the GI50 is > 100 µM (inactive) in assay [14]; > 100 µM (inactive) in [15]; 50.8 µM (inactive) in assay [16]; > 100 µM (inactive) in [18]; > 100 µM (inactive) in assay [19].
Consider `CC1(C)CC2(C)CC1CC2(O)c1ccccc1` (centres undefined), for which the GI50 in assay [1], in [2], in [3], in assay [4], in assay [5] and in assay [7] was > 100 µM (inactive) each time. In addition, the GI50 in assay [8], in [10], in [11], in assay [12], in assay [17] and in assay [14] was > 100 µM (inactive) each time. The GI50 in [15] is > 100 µM (inactive); in assay [18] it was 42.7 µM (inactive).
For `CC(C)(CN1C(=O)C(Cl)=C(Cl)C1=O)CN1C(=O)C(Cl)=C(Cl)C1=O`, the GI50 in [1] was 5.74 µM (inactive); in assay [2], 0.552 µM (active); in [4] it was 35.5 µM (inactive); in assay [5] it was 19.1 µM (inactive); in assay [6], 1.71 µM (inactive); in assay [7], 6 µM (inactive). Further, the GI50 in assay [8] is 8.02 µM (inactive); in assay [10], 6.34 µM (inactive); in assay [11] it was 5 µM (inactive); in assay [12] it was 33.3 µM (inactive); in [17], 21.7 µM (inactive); in [13], 18.8 µM (inactive). Besides, the GI50 in assay [14] was 8.15 µM (inactive); in [15], 28.6 µM (inactive); in assay [16], 19.9 µM (inactive); in assay [18], 7.64 µM (inactive); in assay [19], 12 µM (inactive).
As for `C[N+](C)(Cc1ccc(NC(=O)CCCC(=O)ON2C(=O)CCC2=O)cc1)c1ccccc1`, the GI50 is < 0.01 µM (active) in assay [1]; < 0.01 µM (active) in assay [2]; < 0.01 µM (active) in assay [4]; < 0.01 µM (active) in [5]; < 0.01 µM (active) in assay [6]; > 1 µM (active) in [7]. The GI50 in assay [8] was < 0.01 µM (active); in assay [10], < 0.01 µM (active); in [11], < 0.01 µM (active); in assay [12], < 0.01 µM (active); in [17] it was < 0.01 µM (active); in assay [13], 0.0234 µM (active). Moreover, the GI50 in assay [14], in assay [15], in assay [16], in [18] and in assay [19] was < 0.01 µM (active) each time.
